Data: patent publication US20130197032A1, “[…] COMPOUNDS FOR THE TREATMENT OF NEUROLOGICAL AND […] DISORDERS” (A. CARLSSON RESEARCH AB, priority 2010, published 2013)
pEC50: −log10 of the molar value.

What was measured:
human 5-HT1B receptor = human 5-HT1B receptor (Homo sapiens, UniProt P28222); assay: R-SAT assay 5-HT1B; format: cell-based
[1] = biological target: T1, human 5-HT2C(vgv) receptor (Homo sapiens, UniProt P28335, I156V/I160V/N158G); assay: R-SAT assay 5-HT2C; format: cell-based; conditions: Table 3, 5-HT2C; percent response of reference 5-CT
T1 construct: expressed in transfected cells; host or cells: NIH/3T3
T1 sequence (P28335 33-458 I156V/N158G/I160V): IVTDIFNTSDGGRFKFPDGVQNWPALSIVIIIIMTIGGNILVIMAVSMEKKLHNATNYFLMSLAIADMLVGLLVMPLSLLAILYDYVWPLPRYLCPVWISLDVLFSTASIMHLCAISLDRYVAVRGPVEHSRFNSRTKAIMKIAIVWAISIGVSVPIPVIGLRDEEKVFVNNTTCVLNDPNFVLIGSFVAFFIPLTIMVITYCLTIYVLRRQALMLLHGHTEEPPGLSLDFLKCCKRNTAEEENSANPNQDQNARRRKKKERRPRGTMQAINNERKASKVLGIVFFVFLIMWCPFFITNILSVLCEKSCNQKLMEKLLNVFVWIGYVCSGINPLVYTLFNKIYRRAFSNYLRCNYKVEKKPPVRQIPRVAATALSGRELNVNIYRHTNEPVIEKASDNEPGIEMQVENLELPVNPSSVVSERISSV

human 5-HT2A receptors [2] = biological target: T2, human 5-HT2A receptors (Homo sapiens, UniProt P28223); assay: R-SAT functional assay at 5-HT2A; format: cell-based; design: expressed in transfected cells; host or cells: NIH-3T3
human 5-HT6 receptor = human 5-HT6 receptor (Homo sapiens, UniProt P50406); assay: R-SAT assay 5-HT6; format: cell-based
5-HT2B receptors = 5-HT2B receptors (Homo sapiens, UniProt P41595); assay: R-SAT assay 5-HT2B; format: cell-based; design: expressed in transfected cells; host or cells: NIH/3T3
human 5-HT7 receptor = biological target: T3, human 5-HT7 receptor (Homo sapiens, UniProt P34969); assay: R-SAT assay 5-HT7; format: cell-based; conditions: Table 3, 5-HT7; percent response of reference 5-CT
T3 construct: expressed in transfected cells; host or cells: NIH/3T3

human 5-HT2A receptors [3] = biological target: T2, human 5-HT2A receptors; assay: Phosphatidyl inositol (PI) hydrolysis assay at 5-HT2A; format: cell-based; design: expressed in transfected cells; conditions: mean ± SEM
Description: After lysing the cells with 50 μl of 0.1M formic acid, 20 μl each cell lysate was mixed with 80 μl (1 mg) RNA Binding YSi-SPA beads (GE Healthcare, Chalfont St. Giles, UK) on PICO plates (PerkinElmer) and counted on a TopCount (Packard).
Each curve is representative of at least three or more independent experiments.

human 5-HT1D receptor = biological target: T4, human 5-HT1D receptor (Homo sapiens, UniProt P28221); assay: R-SAT assay 5-HT1D; format: cell-based; conditions: Table 3, 5-HT1D; percent response of reference 5-CT
T4 construct: expressed in transfected cells; host or cells: NIH/3T3

human 5-HT2A receptors [4] = biological target: T2, human 5-HT2A receptors; assay: BRET2 beta-arrestin-2 recruitment assay at 5-HT2A; format: cell-based; design: expressed in transfected cells; host or cells: HEK-293T; conditions: mean ± SEM
Description: (§1) BRET-2 signals were measured using the multiplate reader Mithras 940LB (Berthold Technologies, Bad Wildbad, Germany) and were calculated as the ratio between the Renilla luciferase emission and the GFP2 emission corrected by the background emissions of non-transfected cells.

human M4 receptor = biological target: T5, human M4 receptor (Homo sapiens, UniProt P08173); assay: R-SAT assay M4; format: cell-based; conditions: Table 3, M4; percent response of reference Carbachol
T5 construct: expressed in transfected cells; host or cells: NIH/3T3
T5 sequence (P08173 1-479): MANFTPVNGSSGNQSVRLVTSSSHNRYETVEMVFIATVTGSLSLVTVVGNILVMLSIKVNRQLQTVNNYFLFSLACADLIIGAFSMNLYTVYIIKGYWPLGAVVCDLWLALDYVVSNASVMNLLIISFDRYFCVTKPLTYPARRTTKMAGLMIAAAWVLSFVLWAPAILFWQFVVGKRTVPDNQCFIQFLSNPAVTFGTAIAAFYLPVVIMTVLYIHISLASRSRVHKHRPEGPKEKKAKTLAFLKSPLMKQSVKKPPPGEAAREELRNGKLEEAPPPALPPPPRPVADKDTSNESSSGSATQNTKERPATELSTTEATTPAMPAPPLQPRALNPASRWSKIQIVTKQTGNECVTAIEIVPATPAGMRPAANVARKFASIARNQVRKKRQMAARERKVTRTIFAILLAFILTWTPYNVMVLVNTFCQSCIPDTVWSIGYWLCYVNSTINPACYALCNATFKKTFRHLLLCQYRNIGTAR

human M2 receptor = biological target: T6, human M2 receptor (Homo sapiens, UniProt P08172); assay: R-SAT assay M2; format: cell-based; conditions: Table 3, M2; percent response of reference Carbachol
T6 construct: expressed in transfected cells; host or cells: NIH/3T3
T6 sequence (P08172 1-466): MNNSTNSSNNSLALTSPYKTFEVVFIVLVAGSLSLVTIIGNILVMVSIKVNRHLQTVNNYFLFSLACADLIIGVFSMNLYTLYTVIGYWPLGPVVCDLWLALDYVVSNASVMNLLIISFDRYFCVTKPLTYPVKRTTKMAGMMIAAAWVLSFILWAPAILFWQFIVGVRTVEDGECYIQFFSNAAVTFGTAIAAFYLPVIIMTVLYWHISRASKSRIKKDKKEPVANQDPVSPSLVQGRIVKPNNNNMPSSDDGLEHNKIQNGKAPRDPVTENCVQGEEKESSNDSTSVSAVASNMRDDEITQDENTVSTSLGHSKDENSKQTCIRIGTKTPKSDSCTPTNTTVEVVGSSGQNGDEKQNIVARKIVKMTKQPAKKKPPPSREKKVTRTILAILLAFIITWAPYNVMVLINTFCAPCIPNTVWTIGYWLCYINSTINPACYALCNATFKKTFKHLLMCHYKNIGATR

human M5 receptor = biological target: T7, human M5 receptor (Homo sapiens, UniProt P08912); assay: R-SAT assay M5; format: cell-based; conditions: Table 3, M5; percent response of reference Carbachol
T7 construct: expressed in transfected cells; host or cells: NIH/3T3 cells, transient transfection, pSI vector

human D3 receptor = biological target: T8, human D3 receptor (Homo sapiens, UniProt P35462); assay: R-SAT assay D3; format: cell-based; conditions: Table 3, D3; percent response of reference Pergolide
T8 construct: expressed in transfected cells

D2 receptors [5] = biological target: T9, D2 receptors (Homo sapiens, UniProt P14416); assay: R-SAT functional assay at D2; format: cell-based; design: expressed in transfected cells; host or cells: NIH-3T3
D2 receptors [6] = biological target: T9, D2 receptors; assay: BRET2 beta-arrestin-2 recruitment assay at D2; format: cell-based; design: expressed in transfected cells; host or cells: HEK-293T
Description: as §1
Each curve is representative of two to three independent experiments.

[7] = biological target: human D4 (variant 4.2) receptor (Homo sapiens, UniProt P21917, DEL265-296); format: cell-based
D2 receptors [8] = biological target: T9, D2 receptors; assay: GTPγS binding assay at D2; format: biochemical; design: expressed in transfected cells; conditions: percent response of reference ligand dopamine; mean ± SEM
Description: Cells were not centrifuged following cell scraping, but were collected directly into the ice-cold nitrogen cavitation chamber.
50 μl/well Wheat-Germ Agglutinin SPA beads (Perkin Elmer, Shelton, Conn.) were added to the plates and the plates incubated for 1 hour. The plates were then centrifuged at 1,000×g for 10 minutes and read on a Top Count NXT (Perkin Elmer, Shelton, Conn.).
To relate the results observed in R-SAT™ to a more conventional assay system, these ligands were also tested for the ability to induce GTPγS binding through D2 receptors.

human alpha1B receptor = biological target: T10, human alpha1B receptor (Homo sapiens, UniProt P35368); assay: R-SAT assay α1B; format: cell-based; conditions: Table 3, α1B; percent response of reference Phenylephrine
T10 construct: expressed in transfected cells; host or cells: NIH/3T3 cells, transient transfection, pSI vector
T10 sequence (P35368 1-520): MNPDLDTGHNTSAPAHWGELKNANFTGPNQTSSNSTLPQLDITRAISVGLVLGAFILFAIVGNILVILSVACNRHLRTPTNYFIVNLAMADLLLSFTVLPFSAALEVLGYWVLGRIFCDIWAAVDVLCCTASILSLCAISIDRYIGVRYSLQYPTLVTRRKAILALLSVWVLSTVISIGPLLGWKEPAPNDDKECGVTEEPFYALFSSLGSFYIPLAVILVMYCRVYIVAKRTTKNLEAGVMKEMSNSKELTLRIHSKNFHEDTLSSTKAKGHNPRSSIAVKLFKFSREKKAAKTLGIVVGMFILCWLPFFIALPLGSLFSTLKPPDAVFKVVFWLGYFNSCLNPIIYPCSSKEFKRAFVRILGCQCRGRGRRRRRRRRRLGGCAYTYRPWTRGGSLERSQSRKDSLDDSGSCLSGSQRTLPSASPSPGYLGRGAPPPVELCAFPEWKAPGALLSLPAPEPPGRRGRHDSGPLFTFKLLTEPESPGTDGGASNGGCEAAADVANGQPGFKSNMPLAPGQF

human alpha1A receptor = biological target: T11, human alpha1A receptor (Homo sapiens, UniProt P35348); assay: R-SAT assay α1A; format: cell-based; conditions: Table 3, α1A; percent response of reference Phenylephrine
T11 construct: expressed in transfected cells; host or cells: NIH/3T3 cells, transient transfection, pSI vector
T11 sequence (P35348 1-466): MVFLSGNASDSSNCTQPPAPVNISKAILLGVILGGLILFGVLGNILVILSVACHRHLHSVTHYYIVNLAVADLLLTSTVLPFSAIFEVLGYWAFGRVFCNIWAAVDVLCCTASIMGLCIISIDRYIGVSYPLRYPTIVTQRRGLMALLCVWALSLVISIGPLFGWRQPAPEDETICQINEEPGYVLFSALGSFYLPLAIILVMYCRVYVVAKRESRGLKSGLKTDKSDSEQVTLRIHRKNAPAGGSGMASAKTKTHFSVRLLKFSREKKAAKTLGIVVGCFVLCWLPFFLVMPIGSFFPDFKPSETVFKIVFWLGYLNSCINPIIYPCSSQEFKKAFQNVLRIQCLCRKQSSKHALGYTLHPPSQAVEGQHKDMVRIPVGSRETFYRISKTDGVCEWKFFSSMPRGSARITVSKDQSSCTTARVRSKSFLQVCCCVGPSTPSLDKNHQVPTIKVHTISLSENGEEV

human D1 receptor = biological target: T12, human D1 receptor (Homo sapiens, UniProt P21728); assay: R-SAT assay D1; format: cell-based; conditions: Table 3, D1; percent response of reference SKF 38393
T12 construct: expressed in transfected cells; host or cells: NIH-3T3 (inferred: R-SAT host; D1 is in neither method list of b200)

human alpha2C receptor = biological target: T13, human alpha2C receptor (Homo sapiens, UniProt P18825); assay: R-SAT assay α2C; format: cell-based; conditions: Table 3, α2C; percent response of reference UK 14,306
T13 construct: expressed in transfected cells; host or cells: NIH/3T3 cells, transient transfection, pSI vector
T13 sequence (P18825 1-462): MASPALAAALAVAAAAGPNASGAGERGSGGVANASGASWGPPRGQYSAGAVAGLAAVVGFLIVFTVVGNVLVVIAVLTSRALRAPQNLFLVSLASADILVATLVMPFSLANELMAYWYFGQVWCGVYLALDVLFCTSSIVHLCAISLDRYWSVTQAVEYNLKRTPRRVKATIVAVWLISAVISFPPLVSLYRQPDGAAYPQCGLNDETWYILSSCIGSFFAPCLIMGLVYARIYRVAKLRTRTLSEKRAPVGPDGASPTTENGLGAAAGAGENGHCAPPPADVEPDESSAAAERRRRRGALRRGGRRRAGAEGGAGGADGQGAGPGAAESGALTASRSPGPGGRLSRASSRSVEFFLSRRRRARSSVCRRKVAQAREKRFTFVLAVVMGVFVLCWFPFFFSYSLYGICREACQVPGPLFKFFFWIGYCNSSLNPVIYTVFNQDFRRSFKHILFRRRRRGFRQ

[9] = percent response of reference ligand 5-HT

T2 sequence (P28223 whole entry): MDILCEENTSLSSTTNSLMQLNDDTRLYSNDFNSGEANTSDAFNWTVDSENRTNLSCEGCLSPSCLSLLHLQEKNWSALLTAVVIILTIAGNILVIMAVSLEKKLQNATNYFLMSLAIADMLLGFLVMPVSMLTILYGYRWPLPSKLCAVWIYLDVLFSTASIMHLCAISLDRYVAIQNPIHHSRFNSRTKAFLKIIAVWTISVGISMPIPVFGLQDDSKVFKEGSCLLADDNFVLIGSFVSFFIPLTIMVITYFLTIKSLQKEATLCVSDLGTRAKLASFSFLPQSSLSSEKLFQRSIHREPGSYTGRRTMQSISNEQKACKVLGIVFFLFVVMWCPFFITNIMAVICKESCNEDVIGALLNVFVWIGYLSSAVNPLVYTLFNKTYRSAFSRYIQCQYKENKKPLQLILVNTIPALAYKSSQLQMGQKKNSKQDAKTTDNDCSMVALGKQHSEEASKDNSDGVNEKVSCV
T9 sequence (P14416 1-414 isoform P14416-2): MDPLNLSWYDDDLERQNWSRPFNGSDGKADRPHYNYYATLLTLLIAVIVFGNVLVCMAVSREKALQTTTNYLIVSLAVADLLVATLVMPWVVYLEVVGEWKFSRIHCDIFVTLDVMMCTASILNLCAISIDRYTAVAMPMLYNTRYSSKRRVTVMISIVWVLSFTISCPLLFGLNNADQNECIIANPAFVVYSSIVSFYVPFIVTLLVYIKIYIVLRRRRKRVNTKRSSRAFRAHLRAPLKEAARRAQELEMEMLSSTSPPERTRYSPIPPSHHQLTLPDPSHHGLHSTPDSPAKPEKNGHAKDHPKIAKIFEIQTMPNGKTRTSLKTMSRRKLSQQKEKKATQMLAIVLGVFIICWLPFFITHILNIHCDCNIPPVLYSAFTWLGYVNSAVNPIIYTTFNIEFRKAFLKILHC
Chain of 5-HT2B receptors (P41595 whole entry): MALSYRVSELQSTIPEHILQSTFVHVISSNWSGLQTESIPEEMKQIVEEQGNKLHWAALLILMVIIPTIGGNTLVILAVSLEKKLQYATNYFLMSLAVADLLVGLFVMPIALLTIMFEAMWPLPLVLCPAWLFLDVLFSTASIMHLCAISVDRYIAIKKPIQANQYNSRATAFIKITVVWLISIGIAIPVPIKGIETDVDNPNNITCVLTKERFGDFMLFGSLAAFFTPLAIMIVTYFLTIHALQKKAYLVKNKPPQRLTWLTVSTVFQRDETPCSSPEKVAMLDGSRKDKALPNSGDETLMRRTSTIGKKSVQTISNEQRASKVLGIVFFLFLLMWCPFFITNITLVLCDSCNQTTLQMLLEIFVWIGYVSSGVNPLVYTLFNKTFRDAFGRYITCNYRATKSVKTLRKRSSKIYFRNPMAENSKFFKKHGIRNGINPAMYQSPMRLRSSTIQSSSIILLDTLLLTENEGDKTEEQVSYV
Chain of human 5-HT1B receptor (P28222 whole entry): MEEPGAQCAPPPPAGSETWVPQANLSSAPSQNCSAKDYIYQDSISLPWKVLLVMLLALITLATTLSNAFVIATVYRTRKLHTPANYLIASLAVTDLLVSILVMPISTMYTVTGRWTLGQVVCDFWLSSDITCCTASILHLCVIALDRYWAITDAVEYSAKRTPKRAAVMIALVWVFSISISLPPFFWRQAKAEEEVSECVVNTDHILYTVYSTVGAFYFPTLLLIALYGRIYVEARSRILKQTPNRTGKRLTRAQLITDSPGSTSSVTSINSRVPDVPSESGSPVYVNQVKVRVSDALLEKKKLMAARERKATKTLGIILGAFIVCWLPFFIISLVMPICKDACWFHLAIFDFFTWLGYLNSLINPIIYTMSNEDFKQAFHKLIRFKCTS
Chain of human 5-HT6 receptor (P50406 whole entry): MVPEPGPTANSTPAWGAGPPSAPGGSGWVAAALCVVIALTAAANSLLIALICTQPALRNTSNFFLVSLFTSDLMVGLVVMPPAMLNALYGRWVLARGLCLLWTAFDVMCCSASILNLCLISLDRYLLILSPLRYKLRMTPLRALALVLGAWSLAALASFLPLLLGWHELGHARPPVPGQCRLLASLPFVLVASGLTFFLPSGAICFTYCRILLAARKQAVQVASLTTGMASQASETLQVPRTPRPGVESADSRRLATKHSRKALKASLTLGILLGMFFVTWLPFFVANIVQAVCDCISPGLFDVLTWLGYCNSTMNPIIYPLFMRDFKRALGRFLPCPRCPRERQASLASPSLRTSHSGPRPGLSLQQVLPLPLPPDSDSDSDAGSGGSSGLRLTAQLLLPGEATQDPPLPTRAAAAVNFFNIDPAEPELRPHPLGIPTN
T12 sequence (P21728 whole entry): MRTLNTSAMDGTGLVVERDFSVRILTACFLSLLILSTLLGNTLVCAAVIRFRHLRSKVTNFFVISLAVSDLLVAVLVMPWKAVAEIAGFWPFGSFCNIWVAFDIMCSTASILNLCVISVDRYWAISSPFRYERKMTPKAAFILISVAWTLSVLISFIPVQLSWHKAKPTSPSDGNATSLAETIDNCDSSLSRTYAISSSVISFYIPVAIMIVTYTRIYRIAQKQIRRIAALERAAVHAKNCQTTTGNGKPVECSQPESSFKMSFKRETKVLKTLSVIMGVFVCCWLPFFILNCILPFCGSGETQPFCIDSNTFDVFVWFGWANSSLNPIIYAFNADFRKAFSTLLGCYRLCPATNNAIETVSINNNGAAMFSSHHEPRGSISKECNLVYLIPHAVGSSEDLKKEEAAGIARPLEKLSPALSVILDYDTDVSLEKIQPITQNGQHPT
T3 sequence (P34969 whole entry): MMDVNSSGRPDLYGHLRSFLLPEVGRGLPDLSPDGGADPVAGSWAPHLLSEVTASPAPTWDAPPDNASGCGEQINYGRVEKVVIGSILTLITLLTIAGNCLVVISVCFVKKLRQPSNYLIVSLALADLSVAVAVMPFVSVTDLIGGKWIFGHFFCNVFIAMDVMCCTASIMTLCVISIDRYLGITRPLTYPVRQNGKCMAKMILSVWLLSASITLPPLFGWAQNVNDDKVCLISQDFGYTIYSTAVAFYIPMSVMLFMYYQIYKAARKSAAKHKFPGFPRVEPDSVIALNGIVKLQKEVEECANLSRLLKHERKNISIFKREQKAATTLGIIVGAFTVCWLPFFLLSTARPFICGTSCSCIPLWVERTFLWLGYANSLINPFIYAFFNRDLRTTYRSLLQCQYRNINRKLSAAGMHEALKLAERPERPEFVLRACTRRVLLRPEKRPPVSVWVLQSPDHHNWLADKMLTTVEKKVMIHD
T4 sequence (P28221 whole entry): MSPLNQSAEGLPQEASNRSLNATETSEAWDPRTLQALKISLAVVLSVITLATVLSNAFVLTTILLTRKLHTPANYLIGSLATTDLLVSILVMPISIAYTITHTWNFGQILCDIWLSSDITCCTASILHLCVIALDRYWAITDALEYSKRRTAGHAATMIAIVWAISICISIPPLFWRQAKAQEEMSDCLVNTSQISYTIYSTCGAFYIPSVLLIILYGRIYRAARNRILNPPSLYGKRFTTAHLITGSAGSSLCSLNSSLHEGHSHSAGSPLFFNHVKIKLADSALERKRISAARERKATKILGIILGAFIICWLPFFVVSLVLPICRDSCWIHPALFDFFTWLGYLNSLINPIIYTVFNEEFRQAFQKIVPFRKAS
T7 sequence (P08912 whole entry): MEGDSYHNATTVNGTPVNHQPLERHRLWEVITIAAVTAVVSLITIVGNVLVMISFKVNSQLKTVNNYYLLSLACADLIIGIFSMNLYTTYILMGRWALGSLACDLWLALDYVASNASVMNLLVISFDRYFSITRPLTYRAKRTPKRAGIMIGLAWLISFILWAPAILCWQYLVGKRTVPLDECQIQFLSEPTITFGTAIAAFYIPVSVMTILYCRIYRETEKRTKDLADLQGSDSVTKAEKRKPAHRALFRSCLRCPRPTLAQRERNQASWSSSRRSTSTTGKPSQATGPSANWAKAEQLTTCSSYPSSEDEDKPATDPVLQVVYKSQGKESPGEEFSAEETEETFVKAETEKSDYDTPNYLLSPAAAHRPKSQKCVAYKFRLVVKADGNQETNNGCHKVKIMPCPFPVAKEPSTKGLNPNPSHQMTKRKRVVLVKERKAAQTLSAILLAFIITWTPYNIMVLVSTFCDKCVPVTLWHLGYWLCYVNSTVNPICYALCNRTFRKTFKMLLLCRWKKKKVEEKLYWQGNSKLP
T8 sequence (P35462 whole entry): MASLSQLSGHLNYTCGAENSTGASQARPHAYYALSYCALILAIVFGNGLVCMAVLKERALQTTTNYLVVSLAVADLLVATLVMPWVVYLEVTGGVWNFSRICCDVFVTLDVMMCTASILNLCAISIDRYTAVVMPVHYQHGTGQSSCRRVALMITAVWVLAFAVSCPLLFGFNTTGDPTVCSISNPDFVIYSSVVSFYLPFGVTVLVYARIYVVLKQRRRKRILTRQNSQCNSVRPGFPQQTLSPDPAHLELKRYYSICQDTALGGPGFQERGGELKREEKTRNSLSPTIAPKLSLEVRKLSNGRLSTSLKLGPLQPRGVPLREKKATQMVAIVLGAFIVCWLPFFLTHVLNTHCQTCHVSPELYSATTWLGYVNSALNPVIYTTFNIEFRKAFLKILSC
Chain of human D4 (variant 4.2) receptor (P21917 with tags, fused parts or gaps DEL265-296): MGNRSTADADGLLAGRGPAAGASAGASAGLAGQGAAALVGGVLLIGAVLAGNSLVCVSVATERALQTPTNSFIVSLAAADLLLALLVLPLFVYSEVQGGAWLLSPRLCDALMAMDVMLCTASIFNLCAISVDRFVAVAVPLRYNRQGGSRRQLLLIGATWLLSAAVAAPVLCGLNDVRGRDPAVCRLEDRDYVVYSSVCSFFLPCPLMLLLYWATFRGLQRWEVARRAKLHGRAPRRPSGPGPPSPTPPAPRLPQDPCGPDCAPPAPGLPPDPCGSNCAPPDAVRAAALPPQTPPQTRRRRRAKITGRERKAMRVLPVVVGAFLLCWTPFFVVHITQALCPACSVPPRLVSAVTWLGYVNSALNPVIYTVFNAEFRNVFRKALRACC

NCCc1c[nH]c2ccc(C(N)=O)cc12 [5-CT, 5-carboxamidotryptamine, reference compound]
pEC50 (human 5-HT1B receptor): 8.20
Eff (%) (human 5-HT1B receptor; Table 3, 5-HT1B, percent response of reference 5-CT): 100%
Eff (%) [1]: 100%
EC50 (human 5-HT2A receptors [2]; Table 1, negative logarithm of EC50 in molar (M), NIH3T3 cells, mean ± SEM, read-out: R-SAT pEC50 (converted)): 6.31e-08 M
R-SAT Eff(%) (human 5-HT2A receptors [2]; Table 1, percent response of reference ligand 5-CT, mean ± SEM): 100 ± 0%
EC50 (human 5-HT2A receptors [2]; Table 3, 5-HT2A, negative logarithm of EC50 in molar, read-out: pEC50 (converted)): 7.94e-08 M
Eff (%) (human 5-HT2A receptors [2]; Table 3, 5-HT2A, percent response of reference 5-CT): 100%
pEC50 (human 5-HT6 receptor): 6.60
Eff (%) (human 5-HT6 receptor; Table 3, 5-HT6, percent response of reference 5-CT): 100%
pEC50 (5-HT2B receptors): 7.30
Eff (%) (5-HT2B receptors; Table 3, 5-HT2B, percent response of reference 5-CT): 100%
Eff (%) (human 5-HT7 receptor): 100%
EC50 (human 5-HT2A receptors [3]; negative logarithm of EC50 in molar (M), HEK 293T cells, read-out: PI Hydrolysis pEC50 (converted)): 2.51e-07 M
PI Hydrolysis Eff (%) (human 5-HT2A receptors [3]; [9]): 92 ± 4%
Eff (%) (human 5-HT1D receptor): 100%
EC50 (human 5-HT2A receptors [4]; negative logarithm of EC50 in molar (M), HEK 293T cells, read-out: BRET2 pEC50 (converted)): 2e-07 M
BRET2 Eff % (human 5-HT2A receptors [4]; [9]): 98 ± 3%

C[N+](C)(C)CCOC(N)=O [Carbachol, reference compound]
Eff (%) (human M4 receptor): 100%
Eff (%) (human M2 receptor): 100%
Eff (%) (human M5 receptor): 100%

CCCN1C[C@H](CSC)C[C@@H]2c3cccc4[nH]cc(c34)C[C@H]21 [Pergolide]
Eff (%) (human D3 receptor): 100%
R-SAT Eff(%) (D2 receptors [5]; Table 2, percent response of reference ligand pergolide, mean ± SEM): 100 ± 0%
Eff (%) (D2 receptors [5]; Table 3, D2, percent response of reference Pergolide): 100%
agonist profile in BRET2 assays at D2 receptors (D2 receptors [6]): partial agonists
BRET2 Eff % (D2 receptors [6]; percent response of reference ligand dopamine, mean ± SEM): 64 ± 3%
Eff (%) [7]: 100%
GTPγS Eff % (D2 receptors [8]): 94 ± 7%

CNC[C@H](O)c1cccc(O)c1 [Phenylephrine, reference compound]
Eff (%) (human alpha1B receptor): 100%
Eff (%) (human alpha1A receptor): 100%

Oc1cc2c(cc1O)C(c1ccccc1)CNCC2 (stereo not shown) [SKF 38393, reference compound]
Eff (%) (human D1 receptor): 100%

Brc1c(NC2=NCCN2)ccc2nccnc12 [UK 14,306, reference compound]
Eff (%) (human alpha2C receptor): 100%
